Where “and” joins values, the source holds several entries; their conditions need not be identical. Equal values may be shown once. Inconclusive results and toxic doses are left out. How the source made its calls: active means survival T/C of 150% or more; inactive means T/C below 125% in these data. Numbered stars: 1 amine (or outer) side, 2 acyl side, 3 side chain; on linkers, the order of the positions; unused ones are H or OH. Square brackets hold non-standard residues; d marks the D form. Peptide text beside a SMILES is read from it. X9 = C=CCC(O[*:1])C(=O)[*:2]; NMeV = CN[CH](C(=O)O)C(C)C; NMeA = CN[CH](C)C(=O)O; βAla = NCCC(=O)O
System: P388 leukemia ip, CD2F1 mice, survival T/C
Experiment: NCI In Vivo Anticancer Drug Screen. Data for tumor model P388 Leukemia (intraperitoneal) in CD2F1 (CDF1) mice
Conditions: endpoint: median survival time, higher = longer survival
How it was run: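 Mice carrying the transplanted tumor received test compound or vehicle. Survival was recorded in each group, and the value is the treated-group measurement divided by that of the vehicle-treated control group.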

[1] = dose: 100.0 mg/kg/injection, schedule: Q01DX009 (ip), vehicle: saline with Tween-80
[2] = dose: 200.0 mg/kg/injection, schedule: Q01DX009 (ip), vehicle: saline with Tween-80
[3] = dose: 100.0 mg/kg/injection, schedule: Q04DX003 (ip), vehicle: saline with Tween-80
[4] = dose: 200.0 mg/kg/injection, schedule: Q04DX003 (ip), vehicle: saline with Tween-80
[5] = dose: 400.0 mg/kg/injection, schedule: Q04DX003 (ip), vehicle: saline with Tween-80
[6] = dose: 50.0 mg/kg/injection, schedule: Q01DX009 (ip), vehicle: saline with Tween-80
[7] = dose: 50.0 mg/kg/injection, schedule: Q01DX009 (ip), vehicle: saline
[8] = dose: 100.0 mg/kg/injection, schedule: Q01DX009 (ip), vehicle: saline
[9] = dose: 60.0 mg/kg/injection, schedule: Q01DX005 (ip), vehicle: saline with Tween-80
[10] = dose: 120.0 mg/kg/injection, schedule: Q01DX005 (ip), vehicle: saline with Tween-80
[11] = dose: 240.0 mg/kg/injection, schedule: Q01DX005 (ip), vehicle: saline with Tween-80
[12] = dose: 25.0 mg/kg/injection, schedule: Q01DX005 (ip), vehicle: Klucel (hydroxypropylcellulose) (HPC)
[13] = dose: 50.0 mg/kg/injection, schedule: Q01DX005 (ip), vehicle: Klucel (hydroxypropylcellulose) (HPC)
[14] = dose: 100.0 mg/kg/injection, schedule: Q01DX005 (ip), vehicle: Klucel (hydroxypropylcellulose) (HPC)
[15] = dose: 200.0 mg/kg/injection, schedule: Q01DX005 (ip), vehicle: Klucel (hydroxypropylcellulose) (HPC)
[16] = dose: 25.0 mg/kg/injection, schedule: Q01DX009 (ip), vehicle: other
[17] = dose: 50.0 mg/kg/injection, schedule: Q01DX009 (ip), vehicle: other
[18] = dose: 100.0 mg/kg/injection, schedule: Q01DX009 (ip), vehicle: other
[19] = dose: 200.0 mg/kg/injection, schedule: Q01DX009 (ip), vehicle: other
[20] = dose: 50.0 mg/kg/injection, schedule: Q01DX005 (ip), vehicle: saline with Tween-80
[21] = dose: 100.0 mg/kg/injection, schedule: Q01DX005 (ip), vehicle: saline with Tween-80
[22] = dose: 200.0 mg/kg/injection, schedule: Q01DX005 (ip), vehicle: saline with Tween-80

Measured: T/C

CCCC1OCC(CC)C(CCC)O1 (centres undefined)
inactive: [1] 100 % of control | dose: 100.0 mg/kg/injection, schedule: Q04DX003 (ip), vehicle: saline sonified 100 % of control | [2] 100 % of control | dose: 200.0 mg/kg/injection, schedule: Q04DX003 (ip), vehicle: saline sonified 109 % of control | dose: 400.0 mg/kg/injection, schedule: Q01DX009 (ip), vehicle: saline with Tween-80 91 % of control | dose: 400.0 mg/kg/injection, schedule: Q04DX003 (ip), vehicle: saline sonified 109 % of control

Cc1ncc2c(=O)c3c(ccc4ccccc43)oc2n1
inactive: dose: 50.0 mg/kg/injection, schedule: Q04DX003 (ip), vehicle: saline with Tween-80 96 % of control | [3] 96 % of control | [4] 97 % of control | [5] 103 % of control

C=CCC1OC(=O)CCNC(=O)C(C)N(C)C(=O)C(C(C)C)N(C)C(=O)C(C(C)CC)NC(=O)C2CCCN2C1=O (centres undefined) (cyclo([X9]PI[NMeV][NMeA][βAla]); configuration not given here)
inactive: dose: 1.56 mg/kg/injection, schedule: Q01DX005 (ip), vehicle: water 94 % of control | dose: 3.12 mg/kg/injection, schedule: Q01DX005 (ip), vehicle: water 95 % of control | dose: 6.25 mg/kg/injection, schedule: Q01DX005 (ip), vehicle: water 101 % of control | dose: 12.5 mg/kg/injection, schedule: Q01DX005 (ip), vehicle: water 104 % of control

CCCCCCCCCCCCCCCCSc1nc2ccc(N=Cc3ccccc3O)cc2s1
inactive: dose: 100.0 mg/kg/injection, schedule: Q04DX003 (ip), vehicle: Klucel (hydroxypropylcellulose) (HPC) 92 % of control | dose: 200.0 mg/kg/injection, schedule: Q04DX003 (ip), vehicle: Klucel (hydroxypropylcellulose) (HPC) 90 % of control | dose: 400.0 mg/kg/injection, schedule: Q04DX003 (ip), vehicle: Klucel (hydroxypropylcellulose) (HPC) 91 % of control

O=C(O)C1CCCCC1Cc1ccccc1 (centres undefined)
inactive: [6] 109 % of control | [1] 98 % of control | [2] 93 % of control

NC(=O)c1cn(CCO)nc1[N+](=O)[O-]
inactive: [7] 100 % of control | [8] 100 % of control | dose: 200.0 mg/kg/injection, schedule: Q01DX009 (ip), vehicle: saline 119 % of control

Cc1ccc(S(=O)(=O)OC(=C(F)F)[Si](C)(C)C)cc1
inactive: [6] 102 % of control | [1] 94 % of control

O=S(=O)(Nc1cccc(Cl)c1)c1ccc(F)cc1
inactive: [9] 96 % of control | [10] 99 % of control | [11] 101 % of control

Cc1ccsc1S(N)(=O)=O
inactive: dose: 12.5 mg/kg/injection, schedule: Q01DX005 (ip), vehicle: Klucel (hydroxypropylcellulose) (HPC) 95 % of control | [12] 98 % of control | [13] 106 % of control and 107 % of control | [14] 113 % of control | [15] 113 % of control

CCCCCCCCN1C(=O)c2ccccc2C1=O
inactive: [16] 109 % of control | [17] 103 % of control | [18] 109 % of control | [19] 98 % of control

CC(C)NCC(O)COc1ccccc1C1CC1 (centres undefined)
inactive: [7] 106 % of control | [8] 104 % of control

CNc1nc(N)nc(N)c1N1CCN(c2ccc(C(=O)NC(CCCC(=O)O)C(=O)O)cc2)CC1 (centres undefined)
inactive: [9] 99 % of control | [10] 100 % of control | [11] 95 % of control

CC(=O)c1ccc(C)cc1C
inactive: dose: 25.0 mg/kg/injection, schedule: Q01DX009 (ip), vehicle: saline with Tween-80 98 % of control | [6] 98 % of control | [1] 104 % of control and 110 % of control | [2] 118 % of control

CNC(=O)c1ccccc1C(O)c1ccc(C)cc1 (centres undefined)
inactive: [6] 105 % of control | [1] 99 % of control | [2] 99 % of control

O=C(O)CCSSCCCCCS(=O)O
inactive: dose: 50.0 mg/kg/injection, schedule: Q01DX005 (ip), vehicle: saline 100 % of control | dose: 100.0 mg/kg/injection, schedule: Q01DX005 (ip), vehicle: saline 104 % of control | dose: 200.0 mg/kg/injection, schedule: Q01DX005 (ip), vehicle: saline 104 % of control

O=C1c2ccccc2-c2nc3ncccc3cc21
inactive: [3] 98 % of control | [4] 102 % of control | [5] 102 % of control

CCOc1ccc(N2CC(=O)N3CCCCN3C(=O)C2)cc1
inactive: [13] 112 % of control | [14] 103 % of control | [15] 105 % of control

CCOC(=O)N(O)c1ccc(C(N)=O)cc1
inactive: [6] 100 % of control | [1] 97 % of control | [2] 108 % of control

COc1ccc2ccccc2c1C1=CC(c2ccccc2)C(c2cc(C)n(-c3ccccc3)n2)C(=O)N1 (centres undefined)
inactive: dose: 100.0 mg/kg/injection, schedule: Q04DX002 (ip), vehicle: saline with Tween-80 101 % of control | dose: 200.0 mg/kg/injection, schedule: Q04DX002 (ip), vehicle: saline with Tween-80 106 % of control

CN1C(=O)c2ccccc2N=CN1C(=O)Nc1ccccc1
inactive: [20] 94 % of control | [21] 90 % of control | [22] 88 % of control

C=C(C)C(=O)O[C@H]1C[C@@]2(C)OC(=CC2=O)/C(CO)=C\[C@H]2OC(=O)C(=C)[C@H]12
inactive: dose: 1.56 mg/kg/injection, schedule: Q01DX009 (ip), vehicle: Klucel (hydroxypropylcellulose) (HPC) 108 % of control | dose: 3.13 mg/kg/injection, schedule: Q01DX009 (ip), vehicle: Klucel (hydroxypropylcellulose) (HPC) 106 % of control | dose: 6.25 mg/kg/injection, schedule: Q01DX009 (ip), vehicle: Klucel (hydroxypropylcellulose) (HPC) 117 % of control

O=c1oc2c(cc1Cl)CCc1ccccc1-2
inactive: [20] 104 % of control | [21] 102 % of control | [22] 97 % of control

CCn1c(C)nc([N+](=O)[O-])c1Sc1ncn[nH]1
inactive: [12] 118 % of control | [13] 115 % of control and 120 % of control | [14] 121 % of control

Cc1ccc(N)c(S)c1
inactive: dose: 12.5 mg/kg/injection, schedule: Q01DX009 (ip), vehicle: Klucel (hydroxypropylcellulose) (HPC) 98 % of control | dose: 25.0 mg/kg/injection, schedule: Q01DX009 (ip), vehicle: Klucel (hydroxypropylcellulose) (HPC) 120 % of control | dose: 50.0 mg/kg/injection, schedule: Q01DX009 (ip), vehicle: Klucel (hydroxypropylcellulose) (HPC) 117 % of control

CCCCCCOC(=O)c1ccc(I)cc1
inactive: [6] 97 % of control | [1] 93 % of control | [2] 100 % of control

c1ccc(-n2nc3c(c2-c2ccncc2)CCCc2ccccc2-3)cc1
inactive: dose: 12.5 mg/kg/injection, schedule: Q01DX009 (ip), vehicle: other 96 % of control | [16] 98 % of control | [17] 120 % of control | [18] 110 % of control | [19] 96 % of control

C=C1C(O)C2(O)OCC34C(CC5C(C)=CC(=O)C(O)C5(C)C23)OC(=O)C(O)C14O (centres undefined)
inactive: dose: 6.25 mg/kg/injection, schedule: Q01DX009 (ip), vehicle: saline 93 % of control

COc1cc(OC)c2c3c1CCC(O)=C3C(=O)OC2
inactive: dose: 4.38 mg/kg/injection, schedule: Q01DX005 (ip), vehicle: Klucel (hydroxypropylcellulose) (HPC) 94 % of control | dose: 8.75 mg/kg/injection, schedule: Q01DX005 (ip), vehicle: Klucel (hydroxypropylcellulose) (HPC) 94 % of control | dose: 17.5 mg/kg/injection, schedule: Q01DX005 (ip), vehicle: Klucel (hydroxypropylcellulose) (HPC) 94 % of control

Nc1ncnc2c1ncn2C1OC(COC2C(O)C(OC3OC(CO)C(O)C(O)C3N)C(O)C(OS(=O)(=O)O)C2OC(=O)[C@@H](N)CO)C(O)C1O (some centres undefined)
inactive: dose: 0.15 mg/kg/injection, schedule: Q01DX005 (ip), vehicle: Klucel (hydroxypropylcellulose) (HPC) 101 % of control | dose: 0.31 mg/kg/injection, schedule: Q01DX005 (ip), vehicle: Klucel (hydroxypropylcellulose) (HPC) 98 % of control | dose: 0.62 mg/kg/injection, schedule: Q01DX005 (ip), vehicle: Klucel (hydroxypropylcellulose) (HPC) 100 % of control | dose: 1.25 mg/kg/injection, schedule: Q01DX005 (ip), vehicle: Klucel (hydroxypropylcellulose) (HPC) 100 % of control and 94 % of control

— PubChem BioAssay AID330 (DTP/NCI, 2004)
